ChEMBL document CHEMBL1146733, “Effect of gabapentin derivates on mechanical allodynia-like behaviour in a rat model of chronic sciatic constriction injury” (2004)

Legend:
[1] = tested on: Rattus norvegicus; experiment: Antiallodynic effect investigated in chronic sciatic nerve constriction injury rats after 1 hr of 60 mg/kg i.p. administration and value reported as paw withdrawal threshold; assay type: functional; conditions: route intraperitoneal
[2] = tested on: Rattus norvegicus; experiment: Antiallodynic effect investigated in chronic sciatic nerve constriction injury rats before 1 hr of 60 mg/kg i.p. administration and value reported as paw withdrawal threshold; assay type: functional; conditions: route intraperitoneal

SMILES | PWT [1] [g] | PWT [2] [g] | PWT ([1]; 60 mg/kg) [g] | PWT ([2]; 60 mg/kg) [g]
CC12CC3CC(C)(C1)CC(N)(C3)C2.Cl [MEMANTINE HYDROCHLORIDE] | 10.4 | 2.8 | – | –
CC(C)C[C@@H](CN)CC(=O)OCCCCCOC(=O)CC1(CN)CCCCC1.Cl.Cl (stereo in doubt; 2003327) | – | – | 20.67 | 3.33
CCC(COC(=O)CC1(CN)CCCCC1)OC(=O)C[C@H](CN)CC(C)C.Cl.Cl (stereo in doubt; 2003325) | 6.8 | – | – | 4
CC(C)C[C@H](CN)CC(=O)OCCCOC(=O)C[C@H](CN)CC(C)C.Cl.Cl | 10.33 | 6 | – | –
CC(C)C[C@H](CN)CC(=O)OCCCCOC(=O)C[C@H](CN)CC(C)C.Cl.Cl | 8.5 | 4.5 | – | –
Cl.Cl.NCC1(CC(=O)OCCOC(=O)CC2(CN)CCCCC2)CCCCC1 | 18.67 | 3.4 | – | –
CC(C)C[C@H](CN)CC(=O)OCCOC(=O)C[C@H](CN)CC(C)C.Cl.Cl | 7.9 | 2.9 | – | –
CC(C)C[C@@H](CN)CC(=O)OCC(C)(C)COC(=O)CC1(CN)CCCCC1.Cl.Cl | 7.2 | 4.4 | – | –
COC(=O)CC1(CN)CCCCC1.Cl | 22.8 | 6.4 | – | –
COc1ccc(C(CN(C)C)C2(O)CCCCC2)cc1 (configuration not stated) [VENLAFAXINE] | 22 | 2 | – | –
CC(C)C[C@@H](CN)CC(=O)OC(C)CCOC(=O)CC1(CN)CCCCC1.Cl.Cl (some centres not stated) | 11.4 | 4 | – | –
COC(=O)C[C@@H](CN)CC(C)C.Cl | 6.8 | 5.2 | – | –
COc1ccc(C(CN(C)C)C2(OC(=O)CCC(=O)NC34CC5CC(C)(CC(C)(C5)C3)C4)CCCCC2)cc1.Cl.Cl (configuration not stated) | 5.6 | 3.36 | – | –
CC(C)C[C@@H](CN)CC(=O)OCCCOC(=O)CC1(CN)CCCCC1.Cl.Cl | 7.8 | 3.6 | – | –
Cl.Cl.NCC1(CC(=O)OCCCCOC(=O)CC2(CN)CCCCC2)CCCCC1 | 5.6 | 4 | – | –
NCC1(CC(=O)O)CCCCC1 [GABAPENTIN] | 13.5 | 2.23 | – | –
CC(C)C[C@@H](CN)CC(=O)OCCCCCOC(=O)CC1(CN)CCCCC1.Cl.Cl (stereo in doubt; 20030417) | – | – | 13.8 | 2.8
CCC(COC(=O)CC1(CN)CCCCC1)OC(=O)C[C@H](CN)CC(C)C.Cl.Cl (stereo in doubt; 2003415) | – | – | – | 4.4
CC(C)C[C@@H](CN)CC(=O)OCCCCOC(=O)CC1(CN)CCCCC1.Cl.Cl | 8.56 | 4.17 | – | –
CC(C)C[C@H](CN)CC(=O)O [PREGABALIN] | 18.86 | 3.43 | – | –
CC(C)C[C@H](CNC(=O)CCC(=O)NC[C@@H](CC(=O)O)CC(C)C)CC(=O)O | 6 | 4 | – | –
Cl.Cl.NCC1(CC(=O)OCCCOC(=O)CC2(CN)CCCCC2)CCCCC1 | 19.4 | 4.8 | – | –
CC(C)C[C@H](CNC(=O)CCC(=O)NC12CC3CC(C)(CC(C)(C3)C1)C2)CC(=O)O | 13.2 | 3.32 | – | –
CC(C)C[C@@H](CN)CC(=O)OCCOC(=O)CC1(CN)CCCCC1.Cl.Cl | 19 | 3.33 | – | –
